Data from publication PMC9170034 (Proceedings of the National Academy of Sciences of the …, 2022).
Values joined by “and” are separate entries in the source; they are usually repeats but may differ in a detail not shown here. Equal entries are not always repeated. Where two headings read alike, the source gives them in different places.

Assays:
OXA-10 [1] = molecular target: T1, OXA-10 (Pseudomonas aeruginosa, UniProt P14489); experiment: Kiapp and kinact/K determination in competition with FC-5; type: biochemical
T1 construct: His tag (N); made in house
T1 sequence (P14489 20-266): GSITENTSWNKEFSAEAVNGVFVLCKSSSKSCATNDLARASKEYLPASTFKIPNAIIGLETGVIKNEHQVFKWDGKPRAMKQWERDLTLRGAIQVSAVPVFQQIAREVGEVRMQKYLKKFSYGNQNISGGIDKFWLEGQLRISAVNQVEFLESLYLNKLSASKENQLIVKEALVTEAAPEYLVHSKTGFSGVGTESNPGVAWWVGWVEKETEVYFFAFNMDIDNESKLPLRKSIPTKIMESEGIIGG
Protocol: (§1) Kinetic analyses were performed (at least in triplicate) using either BMG LABTECH PHERAstar or CLARIOstar plate readers. Unless stated otherwise, reactions were in 50 mM phosphate buffer, pH 7.5, containing 0.01% (vol/vol) aqueous Triton X-100, and, in the case of OXA-10, 10 mM sodium bicarbonate. Assays were performed in competition with either the fluorescent reporter substrate FC-5 ([35]), using black-walled microplates (Greiner Bio-One μCLEAR, PS, F-bottom, black), and measuring fluorescence intensity (ʎex = 380 nm and ʎem = 460 nm), or with nitrocefin (NCF), using ultraviolet transparent plates (Greiner Bio-One UV-Star, COC, F-bottom, clear) and measuring absorbance (ʎAbs = 486 nm, using path-length correction). Nonlinear regression analysis was performed with Prism 5 (GraphPad Software).
(§2) IC50s were determined as reported ([35]). TEM-116 (1 nM), AmpCEC (500 pM), or OXA-10 (250 pM) were incubated with varied inhibitor concentrations at room temperature (r.t.) for the indicated time then assayed using 5 µM FC-5. The apparent inhibitory constant Kiapp and the second-order rate constant kinact/K (or k2/K) were determined using reported methods ([60]). SBLs were reacted with the reporter substrate in the presence of varied inhibitor concentrations. Reactions were initiated by SBL addition and immediately monitored for 60 to 120 s (until they plateaued). […]

OXA-10 [2] = molecular target: T1, OXA-10; experiment: SPE-MS study of prolonged reaction of SBL with penam sulfones; conditions: 500 equiv.
OXA-10 [3] = molecular target: T1, OXA-10; experiment: IC50/pIC50 determination with fluorescent reporter substrate FC-5 after pre-incubation; type: biochemical
Protocol: Kinetic analyses were performed (at least in triplicate) using either BMG LABTECH PHERAstar or CLARIOstar plate readers. Unless stated otherwise, reactions were in 50 mM phosphate buffer, pH 7.5, containing 0.01% (vol/vol) aqueous Triton X-100, and, in the case of OXA-10, 10 mM sodium bicarbonate. […] Nonlinear regression analysis was performed with Prism 5 (GraphPad Software).
IC50s were determined as reported ([35]). […] The apparent inhibitory constant Kiapp and the second-order rate constant kinact/K (or k2/K) were determined using reported methods ([60]). SBLs were reacted with the reporter substrate in the presence of varied inhibitor concentrations. Reactions were initiated by SBL addition and immediately monitored for 60 to 120 s (until they plateaued). […] P=Vst+(V0−VS)(1−e^−kobst)/kobs+P0.

AmpCEC = molecular target: T2, AmpCEC (Escherichia coli, UniProt P00811); experiment: biochemical
T2 construct: made in house
T2 sequence (P00811 20-377): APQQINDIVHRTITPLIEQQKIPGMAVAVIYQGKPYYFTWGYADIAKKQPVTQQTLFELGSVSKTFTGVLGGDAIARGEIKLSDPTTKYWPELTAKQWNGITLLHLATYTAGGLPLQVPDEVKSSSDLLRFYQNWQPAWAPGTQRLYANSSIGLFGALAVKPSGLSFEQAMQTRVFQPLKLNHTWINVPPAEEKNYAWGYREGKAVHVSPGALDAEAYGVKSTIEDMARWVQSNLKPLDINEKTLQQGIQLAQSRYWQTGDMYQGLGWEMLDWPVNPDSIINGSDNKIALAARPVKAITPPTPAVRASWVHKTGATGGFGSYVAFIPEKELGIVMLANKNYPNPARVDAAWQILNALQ
Protocol: as §1, §2

[4] = molecular target: T3, AmpC from Escherichia coli (AmpCEC) (Escherichia coli, UniProt P00811); experiment: IC50/pIC50 determination with fluorescent reporter substrate FC-5 after pre-incubation; type: biochemical
T3 construct: made in house
T3 sequence (P00811 20-377): as above
Protocol: as §1
IC50s were determined as reported ([35]). TEM-116 (1 nM), AmpCEC (500 pM), or OXA-10 (250 pM) were incubated with varied inhibitor concentrations at room temperature (r.t.) for the indicated time then assayed using 5 µM FC-5. The apparent inhibitory constant Kiapp and the second-order rate constant kinact/K (or k2/K) were determined using reported methods ([60]). SBLs were reacted with the reporter substrate in the presence of varied inhibitor concentrations. Reactions were initiated by SBL addition and immediately monitored for 60 to 120 s (until they plateaued). For TEM-116 (1 nM) assays were carried out in competition with NCF (50 µM); for AmpCEC (100 nM) and OXA-10 (50 nM) FC-5 (5 µM) was used. […] P=Vst+(V0−VS)(1−e^−kobst)/kobs+P0.

OXA-48 = test system: OXA-48; design: method as in earlier work; conditions: periplasmic extracts; nitrocefin; 5 min pre-incubation; ref 2 (Papp-Wallace et al., 2019); cited from earlier work
OXA-58 = test system: OXA-58; design: method as in earlier work; conditions: periplasmic extracts; nitrocefin; 5 min pre-incubation; ref 2 (Papp-Wallace et al., 2019); cited from earlier work
TEM-30 = test system: TEM-30; design: method as in earlier work; conditions: periplasmic extracts; nitrocefin; 5 min pre-incubation; ref 2 (Papp-Wallace et al., 2019); cited from earlier work
SHV-49 = conditions: periplasmic extracts; nitrocefin; 5 min pre-incubation; ref 2 (Papp-Wallace et al., 2019); cited from earlier work
TEM-116 = TEM-116 (Escherichia coli, UniProt P62593, A182V/V82I); experiment: SPE-MS study of prolonged reaction of SBL with penam sulfones; conditions: prolonged incubation (8 h) with 100 equiv.
Protocol: Mass spectra were acquired in the positive ion mode using an integrated autosampler/SPE RapidFire365 system (Agilent Technologies) coupled to an Agilent 6550 Accurate Mass QTOF spectrometer. After the indicated time, 50 μL of the solution was loaded onto a C4 SPE cartridge (Agilent Technologies), then washed with buffer A (100% [vol/vol] water, 0.1% [vol/vol] formic acid), then eluted into the mass spectrometer in buffer B (15% [vol/vol] water, 85% [vol/vol] acetonitrile, 0.1% [vol/vol] formic acid). The cartridge was reequilibrated in buffer A in between samples. Data were analyzed using MassHunter Qualitative Analysis software V.7 (Agilent Technologies) using the maximum entropy deconvolution algorithm.

KPC-2 = test system: KPC-2; design: method as in earlier work; conditions: periplasmic extracts; nitrocefin; 5 min pre-incubation; ref 2 (Papp-Wallace et al., 2019); cited from earlier work
KPC-3 = test system: KPC-3; design: method as in earlier work; conditions: periplasmic extracts; nitrocefin; 5 min pre-incubation; ref 2 (Papp-Wallace et al., 2019); cited from earlier work
CTX-M-15 = test system: CTX-M-15; design: method as in earlier work; conditions: periplasmic extracts; nitrocefin; 5 min pre-incubation; ref 2 (Papp-Wallace et al., 2019); cited from earlier work
SHV (R244S) = test system: SHV (R244S); design: method as in earlier work; conditions: periplasmic extracts; nitrocefin; 5 min pre-incubation; ref 2 (Papp-Wallace et al., 2019); cited from earlier work
AmpC E. cloacae = test system: AmpC E. cloacae; design: method as in earlier work; conditions: periplasmic extracts; nitrocefin; 5 min pre-incubation; ref 2 (Papp-Wallace et al., 2019); cited from earlier work
OXA-51 = test system: OXA-51; design: method as in earlier work; conditions: periplasmic extracts; nitrocefin; 5 min pre-incubation; ref 2 (Papp-Wallace et al., 2019); cited from earlier work
CTX-M-14 = test system: CTX-M-14; design: method as in earlier work; conditions: periplasmic extracts; nitrocefin; 5 min pre-incubation; ref 2 (Papp-Wallace et al., 2019); cited from earlier work
CMY-2 = test system: CMY-2; design: method as in earlier work; conditions: periplasmic extracts; nitrocefin; 5 min pre-incubation; ref 2 (Papp-Wallace et al., 2019); cited from earlier work
TEM-26 = test system: TEM-26; design: method as in earlier work; conditions: periplasmic extracts; nitrocefin; 5 min pre-incubation; ref 2 (Papp-Wallace et al., 2019); cited from earlier work
OXA-1 = test system: OXA-1; design: method as in earlier work; conditions: periplasmic extracts; nitrocefin; 5 min pre-incubation; ref 2 (Papp-Wallace et al., 2019); cited from earlier work
SHV-1 = conditions: periplasmic extracts; nitrocefin; 5 min pre-incubation; ref 2 (Papp-Wallace et al., 2019); cited from earlier work

## CC1(C)[C@H](C(=O)O)N2C(=O)C[C@H]2S1(=O)=O [sulbactam]
OXA-10 [1]
  Ki: 4920 ± 873 µM
OXA-10 [2]
  −18-Da modification, OXA-10: Small amounts
OXA-10 [3]; IC50, OXA-10, 10 min pre-incubation, r.t., pH 7.5, FC-5 (5 μM), 100 mM NaHCO3 added
  IC50: 143 µM and 142 µM
OXA-10 [3]; pIC50 at pH 7.5, OXA-10, with 100 mM added NaHCO3, 0 min pre-incubation, Table S1
  IC50: 218.8 ± 0.598 µM
OXA-10 [3]; pIC50 at pH 7.5, OXA-10, with 100 mM added NaHCO3, 30 min pre-incubation, Table S1
  IC50: 263 µM
OXA-10 [3]; pIC50 at pH 7.5, OXA-10, with 100 mM added NaHCO3, 60 min pre-incubation, Table S1
  IC50: 112 µM
OXA-10 [3]; pIC50 at pH 7.5, OXA-10, with 100 mM added NaHCO3, 360 min pre-incubation, Table S1
  IC50: 204 µM
OXA-10 [3]; pIC50 at pH 7.5, OXA-10, without added NaHCO3, 0 min pre-incubation, Table S1
  IC50: 204 µM
OXA-10 [3]; pIC50 at pH 7.5, OXA-10, without added NaHCO3, 10 min pre-incubation, Table S1
  IC50: 87.1 µM
OXA-10 [3]; pIC50 at pH 7.5, OXA-10, without added NaHCO3, 30 min pre-incubation, Table S1
  IC50: 89.1 µM
OXA-10 [3]; pIC50 at pH 7.5, OXA-10, without added NaHCO3, 60 min pre-incubation, Table S1
  IC50: 75.9 µM
OXA-10 [3]; pIC50 at pH 7.5, OXA-10, without added NaHCO3, 360 min pre-incubation, Table S1
  IC50: 50.1 µM
AmpCEC
  Ki: 1580 ± 189 µM
[4]; IC50, AmpC E. coli, 10 min pre-incubation, r.t., pH 7.5, FC-5 (5 μM)
  IC50: 89 µM and 89.2 µM
[4]; pIC50, AmpCEC, pH 7.0, pH 7.0, 0 min pre-incubation, Table S2
  IC50: 447 µM
[4]; pIC50, AmpCEC, pH 7.0, pH 7.0, 10 min pre-incubation, Table S2
  IC50: 162 µM
[4]; pIC50, AmpCEC, pH 7.0, pH 7.0, 30 min pre-incubation, Table S2
  IC50: 69.2 µM
[4]; pIC50, AmpCEC, pH 7.0, pH 7.0, 60 min pre-incubation, Table S2
  IC50: 45.7 µM
[4]; pIC50, AmpCEC, pH 7.0, pH 7.0, 360 min pre-incubation, Table S2
  IC50: 11.5 µM
[4]; pIC50, AmpCEC, pH 7.5, pH 7.5, 0 min pre-incubation, Table S2
  IC50: 275 µM
[4]; pIC50, AmpCEC, pH 7.5, pH 7.5, 30 min pre-incubation, Table S2
  IC50: 36.3 µM
[4]; pIC50, AmpCEC, pH 7.5, pH 7.5, 60 min pre-incubation, Table S2
  IC50: 20 µM
[4]; pIC50, AmpCEC, pH 7.5, pH 7.5, 360 min pre-incubation, Table S2
  IC50: 4.17 µM
[4]; pIC50, AmpCEC, pH 8.0, pH 8.0, 0 min pre-incubation, Table S2
  IC50: 97.7 µM
[4]; pIC50, AmpCEC, pH 8.0, pH 8.0, 10 min pre-incubation, Table S2
  IC50: 37.2 µM
[4]; pIC50, AmpCEC, pH 8.0, pH 8.0, 60 min pre-incubation, Table S2
  IC50: 9.77 µM
[4]; pIC50, AmpCEC, pH 8.0, pH 8.0, 360 min pre-incubation, Table S2
  IC50: 1.7 µM
[4]; pIC50 at pH 7.5, AmpCEC, 0 min pre-incubation, Table S1
  IC50: 275 µM
[4]; pIC50 at pH 7.5, AmpCEC, 30 min pre-incubation, Table S1
  IC50: 36.3 µM
[4]; pIC50 at pH 7.5, AmpCEC, 60 min pre-incubation, Table S1
  IC50: 20 µM
[4]; pIC50 at pH 7.5, AmpCEC, 360 min pre-incubation, Table S1
  IC50: 4.17 µM

## C[C@]1(Cn2ccnn2)[C@H](C(=O)O)N2C(=O)C[C@H]2S1(=O)=O [tazobactam]
OXA-10 [1]; OXA-10 (50 nM), FC-5 (5 µM), pH 7.5, 10 mM NaHCO3, read-out: Kiapp, OXA-10
  Ki: 469 ± 80 µM
OXA-48
  IC50: 1.5 ± 0.2 µM
OXA-58
  IC50: 26 ± 3 µM
TEM-30
  IC50: […]
OXA-10 [3]; with 100 mM added NaHCO3, 0 min pre-incubation, Table S1, read-out: pIC50 at pH 7.5, OXA-10 (converted)
  IC50: 3.89 µM
OXA-10 [3]; with 100 mM added NaHCO3, 10 min pre-incubation, Table S1, read-out: pIC50 at pH 7.5, OXA-10 (converted)
  IC50: 1.91 µM
OXA-10 [3]; with 100 mM added NaHCO3, 30 min pre-incubation, Table S1, read-out: pIC50 at pH 7.5, OXA-10 (converted)
  IC50: 0.851 µM
OXA-10 [3]; with 100 mM added NaHCO3, 60 min pre-incubation, Table S1, read-out: pIC50 at pH 7.5, OXA-10 (converted)
  IC50: 0.562 µM
OXA-10 [3]; with 100 mM added NaHCO3, 360 min pre-incubation, Table S1, read-out: pIC50 at pH 7.5, OXA-10 (converted)
  IC50: 0.204 µM
OXA-10 [3]; without added NaHCO3, 0 min pre-incubation, Table S1, read-out: pIC50 at pH 7.5, OXA-10 (converted)
  IC50: 5.01 µM
OXA-10 [3]; without added NaHCO3, 10 min pre-incubation, Table S1, read-out: pIC50 at pH 7.5, OXA-10 (converted)
  IC50: 1.48 µM
OXA-10 [3]; without added NaHCO3, 30 min pre-incubation, Table S1, read-out: pIC50 at pH 7.5, OXA-10 (converted)
  IC50: 0.891 µM
OXA-10 [3]; without added NaHCO3, 60 min pre-incubation, Table S1, read-out: pIC50 at pH 7.5, OXA-10 (converted)
  IC50: 0.457 µM
OXA-10 [3]; without added NaHCO3, 360 min pre-incubation, Table S1, read-out: pIC50 at pH 7.5, OXA-10 (converted)
  IC50: 0.234 µM
SHV-49
  IC50: 0.73 ± 0.08 µM
TEM-116
  −18-Da species, TEM-116: not observed
KPC-2
  IC50: 3.7 ± 0.4 µM
KPC-3
  IC50: 4.4 ± 0.5 µM
CTX-M-15
  IC50: 0.006 ± 0.001 µM
SHV (R244S)
  IC50: 0.39 ± 0.04 µM
AmpC E. cloacae
  IC50: 5.1 ± 0.5 µM
OXA-51
  IC50: > 100 µM
CTX-M-14
  IC50: […]
CMY-2
  IC50: 2.5 ± 0.3 µM
TEM-26
  IC50: 0.023 ± 0.001 µM
OXA-1
  IC50: 8.6 ± 0.9 µM
SHV-1
  IC50: 0.026 ± 0.003 µM
